Data reported in patent US20110136801A1, “Novel Compounds” (Dainippon Sumitomo Pharma Co. Ltd., priority 2009, published 2011).
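Further: Read-out is secreted alkaline phosphatase made under an NFkB/ELAM-1 composite promoter, reporting TLR7-triggered NFkB activation.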

These molecules were tested against T1, human TLR7 (Homo sapiens, UniProt Q9NYK1) (assay: Human TLR7 Assay (SEAP reporter in HEK293 cells)). Conditions: HEK293 cell line expressing human TLR7 and pNiFty2-SEAP reporter, overnight incubation at 37° C., 0.1% DMSO; read-out: hTLR7 EC50.
T1 construct: expressed in transfected cells; host or cells: HEK293 cell line stably expressing the pNiFty2-SEAP reporter plasmid; TLR7 in pUNO vector, blasticidin selection
T1 sequence (Q9NYK1 27-1049): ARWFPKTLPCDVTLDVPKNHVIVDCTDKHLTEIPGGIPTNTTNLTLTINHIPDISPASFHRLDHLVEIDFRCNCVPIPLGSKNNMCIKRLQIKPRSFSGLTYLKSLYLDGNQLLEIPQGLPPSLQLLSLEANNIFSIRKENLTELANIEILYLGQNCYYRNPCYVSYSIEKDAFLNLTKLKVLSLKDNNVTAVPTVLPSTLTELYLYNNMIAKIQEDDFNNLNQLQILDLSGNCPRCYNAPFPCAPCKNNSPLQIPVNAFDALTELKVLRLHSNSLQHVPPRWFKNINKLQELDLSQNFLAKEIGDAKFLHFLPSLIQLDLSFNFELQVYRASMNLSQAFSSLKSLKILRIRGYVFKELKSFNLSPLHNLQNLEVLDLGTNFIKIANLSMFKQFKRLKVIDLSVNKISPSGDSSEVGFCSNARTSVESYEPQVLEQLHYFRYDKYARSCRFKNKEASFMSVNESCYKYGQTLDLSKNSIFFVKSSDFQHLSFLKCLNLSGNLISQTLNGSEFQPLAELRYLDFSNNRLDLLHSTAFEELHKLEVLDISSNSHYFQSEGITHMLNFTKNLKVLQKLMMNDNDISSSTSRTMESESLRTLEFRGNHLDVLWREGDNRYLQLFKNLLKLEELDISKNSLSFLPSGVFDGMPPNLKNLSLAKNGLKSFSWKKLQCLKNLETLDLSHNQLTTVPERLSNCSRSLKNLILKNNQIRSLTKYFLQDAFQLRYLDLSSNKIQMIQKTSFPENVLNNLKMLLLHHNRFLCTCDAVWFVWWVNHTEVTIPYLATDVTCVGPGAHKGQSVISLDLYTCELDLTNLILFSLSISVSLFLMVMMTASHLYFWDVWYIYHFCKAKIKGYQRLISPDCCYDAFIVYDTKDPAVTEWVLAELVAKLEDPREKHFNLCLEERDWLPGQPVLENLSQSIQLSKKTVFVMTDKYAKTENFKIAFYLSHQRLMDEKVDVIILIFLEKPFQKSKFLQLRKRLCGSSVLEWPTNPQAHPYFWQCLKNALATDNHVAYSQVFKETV
Assay type: cell-based
`COCCc1nc2c(N)nc3ccccc3c2n1CCCCN(Cc1ccc(F)c(OCC(=O)OC(C)C)c1)C(=O)NCCN1CCCCC1` [Example 139, Isopropyl 2-{5-[(1-{4-[4-amino-2-(2-methoxyethyl)-1H-imidazo[4,5-c]quinolin-1-yl]butyl}-3-{2-(piperidin-1-yl)ethyl}ureido)methyl]-2-fluorophenoxy}acetate] showed an EC50 of 57 nM. Work on `CCCCc1nc2c(N)nc3ccccc3c2n1CCCN(Cc1cccc(OCC(=O)OC)c1)C(=O)CN1CCCC1` [Example 13, Methyl (3-{[[3-(4-amino-2-butyl-1H-imidazo[4,5-c]quinolin-1-yl)propyl](pyrrolidin-1-ylacetyl)amino]methyl}phenoxy)acetate] yielded an EC50 of 136 nM. With `CCN(C)CC(=O)N(CCCn1c(CCOC)nc2c(N)nc3ccccc3c21)Cc1ccc(OC)c(OCC(=O)OC(C)C)c1` [Example 76, Isopropyl 2-{5-[(N-{3-[4-amino-2-(2-methoxyethyl)-1H-imidazo[4,5-c]quinolin-1-yl]propyl}-2-{ethyl(methyl)amino}acetamido)methyl]-2-methoxyphenoxy}acetate] the EC50 was 211 nM. `CCN(CC)CC(=O)N(CCCn1c(CCOC)nc2c(N)nc3ccccc3c21)Cc1cccc(OCC(=O)OC(C)C)c1C` [Example 147, Isopropyl 2-{3-[(N-{3-[4-amino-2-(2-methoxyethyl)-1H-imidazo[4,5-c]quinolin-1-yl]propyl}-2-{diethylamino}acetamido)methyl]-2-methylphenoxy}acetate] was tested, and the EC50 was 183 nM. `COCCc1nc2c(N)nc3ccccc3c2n1CCCN(Cc1cccc(OCC(=O)OC(C)C)c1)C(=O)CN(C)C` [Example 113, Isopropyl 2-{3-[(N-{3-[4-amino-2-(2-methoxyethyl)-1H-imidazo[4,5-c]quinolin-1-yl]propyl}-2-{dimethylamino}acetamido)methyl]phenoxy}acetate] was tested, and the EC50 was 83.4 nM. `CCOC(=O)C(C)(C)Oc1cccc(CN(CCCn2c(CCOC)nc3c(N)nc4ccccc4c32)C(=O)CN(CC)CC)c1` [Example 55, Ethyl 2-{3-[(N-{3-[4-amino-2-(2-methoxyethyl)-1H-imidazo[4,5-c]quinolin-1-yl]propyl}-2-{diethylamino}acetamido)methyl]phenoxy}-2-methylpropanoate] showed an EC50 of 46.4 nM. In the case of `CCOC(=O)COc1cccc(CN(CCCCn2c(CCOC)nc3c(N)nc4ccccc4c32)C(=O)NCCCN(C)C)c1` [Example 129, Ethyl 2-{3-[(1-{4-[4-amino-2-(2-methoxyethyl)-1H-imidazo[4,5-c]quinolin-1-yl]butyl}-3-{3-(dimethylamino)propyl}ureido)methyl]phenoxy}acetate], the EC50 is reported as 204 nM. Molecule `CCOC(=O)COc1cccc(CN(CCN2CCCCC2)C(=O)NCCCCn2c(CCOC)nc3c(N)nc4ccccc4c32)c1` [Example 130, Ethyl 2-{3-[(3-{4-[4-amino-2-(2-methoxyethyl)-1H-imidazo[4,5-c]quinolin-1-yl]butyl}-1-{2-(piperidin-1-yl)ethyl}ureido)methyl]phenoxy}acetate] has an EC50 of 24.4 nM. With `CCN(CC)CC(=O)N(CCCn1c(CCOC)nc2c(N)nc3ccccc3c21)Cc1cccc(OCC(=O)OCCOC)c1` [Example 29, 2-Methoxyethyl 2-{3-[(N-{3-[4-amino-2-(2-methoxyethyl)-1H-imidazo[4,5-c]quinolin-1-yl]propyl}-2-(diethylamino)acetamido)methyl]phenoxy}acetate] the EC50 was 174 nM. For `CCN(CC)CC(=O)N(CCCn1c(CCOC)nc2c(N)nc3ccccc3c21)Cc1ccc(OC)c(OCC(=O)OC(C)C)c1` [Example 72, Isopropyl 2-{5-[(N-{3-[4-amino-2-(2-methoxyethyl)-1H-imidazo[4,5-c]quinolin-1-yl]propyl}-2-{diethylamino}acetamido)methyl]-2-methoylphenoxy}acetate], the EC50 was 55.8 nM. With `CCOCc1nc2c(N)nc3ccccc3c2n1CCCN(Cc1cccc(OCC(=O)OC(C)C)c1F)C(=O)CN(C)C` [Example 167, Isopropyl 2-{3-[(N-{3-[4-amino-2-(ethoxymethyl)-1H-imidazo[4,5-c]quinolin-1-yl]propyl}-2-{dimethylamino}acetamido)methyl]-2-fluorophenoxy}acetate] the EC50 was 716 nM. `CCOC(=O)COc1cccc(CN(CCCn2c(CCOC)nc3c(N)nc4ccccc4c32)C(=O)CN2CCCC2)c1` [Example 31, Ethyl 2-{3-[(N-{3-[4-amino-2-(2-methoxyethyl)-1H-imidazo[4,5-c]quinolin-1-yl]propyl}-2-(pyrrolidin-1-yl)acetamido)methyl]phenoxy}acetate] gave an EC50 of 150 nM. `CCOC(=O)C(C)(C)Oc1cccc(CN(CCn2c(CCOC)nc3c(N)nc4ccccc4c32)C(=O)CN(CC)CC)c1` [Example 106, Ethyl 2-{3-[(N-{2-[4-amino-2-(2-methoxyethyl)-1H-imidazo[4,5-c]quinolin-1-yl]ethyl}-2-{diethylamino}acetamido)methyl]phenoxy}-2-methylpropanoate] showed an EC50 of over 10000 nM. Work on `CCN(CC)CC(=O)N(CCCn1c(CCOC)nc2c(N)nc3ccccc3c21)Cc1cc(F)cc(OCC(=O)OC(C)C)c1` [Example 123, Isopropyl 2-{3-[(N-{3-[4-amino-2-(2-methoxyethyl)-1H-imidazo[4,5-c]quinolin-1-yl]propyl}-2-{diethylamino}acetamido)methyl]-5-fluorophenoxy}acetate] yielded an EC50 of 50.2 nM. `CCOC(=O)C(C)(C)Oc1cccc(CN(CCCCn2c(CCOC)nc3c(N)nc4ccccc4c32)CCN(C)C)c1` [Example 134, Ethyl 2-{3-[({4-[4-amino-2-(2-methoxyethyl)-1H-imidazo[4,5-c]quinolin-1-yl]butyl}{2-(dimethylamino)ethyl}amino)methyl]phenoxy}-2-methylpropanoate] gave an EC50 of 20.9 nM. Molecule `CCN(CC)CC(=O)N(CCCn1c(CCOC)nc2c(N)nc3ccccc3c21)Cc1ccc(OCC(=O)OC)cc1` [Example 36, Methyl 2-{4-[(N-{3-[4-amino-2-(2-methoxyethyl)-1H-imidazo[4,5-c]quinolin-1-yl]propyl}-2-(diethylamino)acetamido)methyl]phenoxy}acetate] has an EC50 of 84.5 nM. For `CCN(CC)CC(=O)N(CCCn1c(CCOC)nc2c(N)nc3ccccc3c21)Cc1cccc(OCC(=O)OC2CCC2)c1` [Example 81, Cyclobutyl 2-{3-[(N-{3-[4-amino-2-(2-methoxyethyl)-1H-imidazo[4,5-c]quinolin-1-yl]propyl}-2-{diethylamino}acetamido)methyl]phenoxy}acetate], the EC50 was 56.1 nM. With `CCN(CC)CC(=O)N(CCCn1c(CCOC)nc2c(N)nc3ccccc3c21)Cc1cccc(OCC(=O)OCCO)c1` [Example 30, 2-Hydroxyethyl 2-{3-[(N-{3-[4-amino-2-(2-methoxyethyl)-1H-imidazo[4,5-c]quinolin-1-yl]propyl}-2-(diethylamino)acetamido)methyl]phenoxy}acetate] the EC50 was 1460 nM. `CCOCc1nc2c(N)nc3ccccc3c2n1CCCN(Cc1cccc(OC(C)(C)C(=O)OCC)c1)C(=O)CN(CC)CC` [Example 162, Ethyl 2-{3-[(N-{3-[4-amino-2-(ethoxymethyl)-1H-imidazo[4,5-c]quinolin-1-yl]propyl}-2-{diethylamino}acetamido)methyl]phenoxy}-2-methylpropanoate] showed an EC50 of 96.4 nM. `CCCOCc1nc2c(N)nc3ccccc3c2n1CCCN(Cc1cccc(OC(C)(C)C(=O)OC)c1)C(=O)CN(CC)CC` [Example 174, Methyl 2-{3-[(N-{3-[4-amino-2-(propoxymethyl)-1H-imidazo[4,5-c]quinolin-1-yl]propyl}-2-{diethylamino}acetamido)methyl]phenoxy}-2-methylpropanoate] showed an EC50 of 117 nM. `CCCOC(=O)COc1cccc(CN(CCCn2c(CCOC)nc3c(N)nc4ccccc4c32)C(=O)CN(CC)CC)c1` [Example 26, Propyl 2-{3-[(N-{3-[4-amino-2-(2-methoxyethyl)-1H-imidazo[4,5-c]quinolin-1-yl]propyl}-2-(diethylamino)acetamido)methyl]phenoxy}acetate] showed an EC50 of 54.6 nM. `CCOC(=O)COc1cccc(CN(CCCn2c(CCOC)nc3c(N)nc4ccccc4c32)C(=O)CN(CC)CC)c1` [Example 25, Ethyl 2-{3-[(N-{3-[4-amino-2-(2-methoxyethyl)-1H-imidazo[4,5-c]quinolin-1-yl]propyl}-2-(diethylamino)acetamido)methyl]phenoxy}acetate] gave an EC50 of 58.7 nM. In the case of `COCCc1nc2c(N)nc3ccccc3c2n1CCCCNC(=O)N(CCN1CCCCC1)Cc1ccc(F)c(OCC(=O)OC)c1` [Example 144, Methyl 2-{5-[(3-{4-[4-amino-2-(2-methoxyethyl)-1H-imidazo[4,5-c]quinolin-1-yl]butyl}-1-{2-(piperidin-1-yl)ethyl}ureido)methyl]-2-fluorophenoxy}acetate], the EC50 is reported as 79.2 nM.
